# From patent US8183234B2, “Tricyclic guanidine derivatives as sodium-proton exchange inhibitors” (Piramal Life Sciences Limited, priority 2004, dated 2012)
# Where a name gives a salt, the structure may show the parent alone.
# Target: T1, NHE-1 (Homo sapiens, UniProt P19634)
# T1 construct: NHE-1 isoform which is predominantly present in human platelets; endogenous in cells; host or cells: human platelets (platelet rich plasma from blood of healthy volunteers)
# Assay: Primary screening assay in human platelets (acidified human platelet swelling assay)
# Assay type: cell-based
# Settings: concentration required to inhibit 50% of NHE-1 activity in isolated human platelets; mean of three readings, PRP from three donors
# Method: Experiments on inhibition of NHE in human platelets are based on those published in (Cardiovasc. Res. 29: 260-268, (1995), J. Med. Chem. 41, 3736-3747, (1998)) Blood (150 mL) collected in a siliconized glass bottle from healthy volunteers was treated with aqueous acid citrate dextrose (ACD) solution (25 mL) [composition: citric acid (38 mM/L), glucose (136 mM/L) and trisodium citrate (75 mM/L)] and immediately centrifuged at 200 g for 20 min. The platelet rich plasma (PRP) was separated and a platelet count carried out using a Beckman Coulter A^c T® cell counter. The cell count was adjusted to 3×10^8 platelets/mL using platelet free plasma.
# Activation of Na^+/H^+ exchanger by intracellular acidification: 150 μL of PRP was added to 750 μL of propionate buffer [composition: KCl (5 mM/L), CaCl2 (1 mM/L), MgCl2 (1 mM/L), glucose (10 mM/L), HEPES (20 mM/L), sodium propionate (140 mM/L)] of pH 6.6, in a cuvette. Optical density was recorded at 630 nm using a Shimadzu spectrophotometer (UV 1601). The micromolar concentrations of a few representative compounds required to inhibit 50% of NHE-1 activity (IC50), in isolated human platelets (acidified human platelet swelling assay) is shown in Table 2. IC50 values are the mean of three experimental readings using PRP isolated from the blood of three different donors.
# T1 sequence (P19634 whole entry, canonical isoform): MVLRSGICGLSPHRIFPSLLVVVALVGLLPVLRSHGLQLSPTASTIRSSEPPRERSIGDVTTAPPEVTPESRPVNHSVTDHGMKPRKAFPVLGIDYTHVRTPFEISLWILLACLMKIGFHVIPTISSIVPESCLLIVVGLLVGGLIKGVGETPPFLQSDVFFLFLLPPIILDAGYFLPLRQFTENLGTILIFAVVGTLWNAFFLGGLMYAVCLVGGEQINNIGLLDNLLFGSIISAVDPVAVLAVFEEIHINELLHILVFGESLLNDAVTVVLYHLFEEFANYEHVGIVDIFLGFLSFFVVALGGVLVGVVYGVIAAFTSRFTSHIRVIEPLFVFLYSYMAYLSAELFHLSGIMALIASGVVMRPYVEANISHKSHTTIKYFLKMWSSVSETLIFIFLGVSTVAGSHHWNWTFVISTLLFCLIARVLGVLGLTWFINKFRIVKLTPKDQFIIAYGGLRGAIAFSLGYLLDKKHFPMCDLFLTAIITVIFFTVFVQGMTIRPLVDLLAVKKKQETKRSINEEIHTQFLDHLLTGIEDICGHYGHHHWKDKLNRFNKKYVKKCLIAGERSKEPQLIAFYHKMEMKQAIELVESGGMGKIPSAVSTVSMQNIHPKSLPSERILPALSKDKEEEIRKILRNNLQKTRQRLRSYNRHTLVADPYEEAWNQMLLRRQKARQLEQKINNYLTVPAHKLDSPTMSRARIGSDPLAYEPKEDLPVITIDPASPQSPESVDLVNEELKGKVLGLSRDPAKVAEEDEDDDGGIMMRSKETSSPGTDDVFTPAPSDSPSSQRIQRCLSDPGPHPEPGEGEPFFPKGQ
row,SMILES,IC50 [nM]
1,"Cc1cc(C(=O)N=C(N)N)cc2c1Oc1c(Cl)cc(S(=O)(=O)NCc3cccnc3)cc1CS2(=O)=O [Example 52, 4-Chloro-8-guanidinocarbonyl-6-methyl-10,10-dioxo-10,11-dihydro-5-oxa-10lambda*6*-thia-dibenzo[a,d]cycloheptene-2-sulfonic acid (pyridin-3-ylmethyl)-amide dimesylate]",80
2,"Cc1cc(C(=O)N=C(N)N)cc2c1Oc1c(Cl)cc(N3CCN(Cc4ccccc4)CC3)cc1CS2(=O)=O [Example 118, N-[2-(4-Benzyl-piperazin-1-yl)-4-chloro-6-methyl-10,10-dioxo-10,11-dihydro-5-oxa-10lambda*6*-thia-dibenzo[a,d]cycloheptene-8-carbonyl]-guanidine dimesylate]",100
3,"Cc1cc(C(=O)N=C(N)N)cc2c1Oc1c(cccc1C(C)C)CS2(=O)=O [Example 31, N-(4-Isopropyl-6-methyl-10,10-dioxo-10,11-dihydro-5-oxa-10lambda*6*-thia-dibenzo[a,d]cycloheptene-8-carbonyl)-guanidine, methane sulfonic acid salt]",200
4,"Cc1cc(N)cc2c1Oc1c(Cl)cc(C(=O)N=C(N)N)cc1S(=O)(=O)C2 [Example 48, N-(2-Amino-6-chloro-4-methyl-10,10-dioxo-10,11-dihydro-5-oxa-10lambda*6*-thia-dibenzo[a,d]cycloheptene-8-carbonyl)-guanidine, methane sulfonic acid salt]",40
5,"Cc1cc(C(=O)N=C(N)N)cc2c1Oc1c(Cl)cc(CN)cc1CS2(=O)=O [Example 198, N-(2-Aminomethyl-4-chloro-6-methyl-10,10-dioxo-10,11-dihydro-5-oxa-10lambda*6*-thia-dibenzo[a.d]cycloheptene-8-carbonyl)-guanidine trimesylate]",30
6,"Cc1cc(C(=O)N=C(N)N)cc2c1Oc1c(Cl)cc(N3CCN(C4CC4)CC3=O)cc1CS2(=O)=O [Example 58, N-[4-Chloro-2-(4-cyclopropyl-2-oxo-piperazin-1-yl)-6-methyl-10,10-dioxo-10,11-dihydro-5-oxa-10lambda*6*-thia-dibenzo[a,d]cycloheptene-8-carbonyl]-guanidine dimesylate]",87

# Next, values leading:
row,IC50 [nM],SMILES
1,32,"CCN(CCN1CCCC1)c1cc(Cl)c2c(c1)CS(=O)(=O)c1cc(C(=O)N=C(N)N)cc(C)c1O2 [Example 73, N-{4-Chloro-2-[ethyl-(2-pyrrolidin-1-yl-ethyl)-amino]-6-methyl-10,10-dioxo-10,11-dihydro-5-oxa-10lambda*6*-thia-dibenzo[a,d]cycloheptene-8-carbonyl}-guanidine dimesylate]"
2,70,"NC(N)=NC(=O)c1cc(Cl)c2c(c1)S(=O)(=O)Cc1cccc(Cl)c1O2 [Example 45, 4,6-Dichloro-10,10-dioxo-10,11-dihydro-5-oxa-10lambda*6*-thia-dibenzo[a,d]cycloheptene-8-carbonylguanidine, methane sulfonic acid salt]"
3,28,"Cc1cc(C(=O)N=C(N)N)cc2c1Oc1c(Cl)cc(NCCn3ccnc3)cc1CS2(=O)=O [Example 64, N-[4-Chloro-2-(2-imidazol-1-yl-ethylamino)-6-methyl-10,10-dioxo-10,11-dihydro-5-oxa-10lambda*6*-thia-dibenzo[a,d]cycloheptene-8-carbonyl]-guanidine dimesylate]"
4,100,"Cc1cc2c(cc1C(=O)N=C(N)N)S(=O)(=O)Cc1ccccc1N2 [Example 183, N-(7-Methyl-10,10-dioxo-10,11-dihydro-5H-10lambda*6*-thia-5-aza-dibenzo[a.d]cycloheptene-8-carbonyl)-guanidine, methane sulfonic acid salt]"
5,20,"Cc1cc(C(=O)N=C(N)N)cc2c1Oc1c(Cl)cc(N)cc1CS2(=O)=O [Example 35, N-(2-Amino-4-chloro-6-methyl-10,10-dioxo-10,11-dihydro-5-oxa-10lambda*6*-thia-dibenzo[a,d]cycloheptene-8-carbonyl)-guanidine, methane sulfonic acid salt]"
6,200,"Cc1cc(C(=O)N=C(N)N)cc2c1N(C)c1c(Cl)cccc1C(C)S2(=O)=O (stereo not shown) [Example 194, N-(4-Chloro-5,6,11-trimethyl-10,10-dioxo-10,11-dihydro-5H-10lambda*6*-thia-5-aza-dibenzo[a.d]cycloheptene-8-carbonyl)-guanidine, methane sulfonic acid salt]"
7,100,"Cc1cc2c(cc1C(=O)N=C(N)N)S(=O)(=O)Cc1ccccc1O2 [Example 27, N-(7-Methyl-10,10-dioxo-10,11-dihydro-5-oxa-10lambda*6*-thia-dibenzo[a,d]cycloheptene-8-carbonyl)-guanidine, methane sulfonic acid salt]"
